Measurements reported in patent publication US12516346B2, “Intelligent genetic breeding and seed production system for crop cross breeding and hybrid seed production, and application thereof” (Hainan Bolian Technology Co., Ltd., priority 2020, dated 2026).

Tests used:
Assay type in all cases: in vivo, rice
[1] = tested on: GAT T0 generation transformants and wild-type control ZH11; assay: Bentazon sensitive phenotype, spraying of scribed leaf area, T0 generation
Description: In order to test the working efficiency of herbicide sensitive elements in the GAT system, after the identification of bispyribac-sodium resistance phenotype, a 3 g/L bentazone solution was prepared with 48% bentazone mother liquor (Changzhou Precision Biotechnology Co., Ltd.). The scribed area of plant leaves of surviving GAT T0 generation (347 strains) in the last spraying experiment with bispyribac-sodium and the wild-type control ZH11 were sprayed with the resultant solution, and were continuously observed after spraying. Some GAT transformants T0 had curly and yellow leaf tips on the third day after spraying. […] Meanwhile, 86 strains were highly resistant to bispyribac-sodium and highly sensitive to bentazone. Based on the similar analysis of the transformation events of the above bispyribac-sodium resistance strains, it can be seen that this experiment confirmed that the working efficiency of herbicide sensitive elements in the GAT system is high, and the created GAT seed breeding system can quickly and accurately identify the corresponding phenotype thereof.

[2] = tested on: T1 generation seedlings of GAT key plants, ZH11, CK+ (P450i2-30); assay: Bentazone spraying of T1 generation seedlings; conditions: 3 g/L bentazone
Description: In order to identify the working efficiency of herbicide sensitive elements in the T1 generation of the GAT transformants, a 3 g/L bentazone solution was prepared with 48% bentazone mother liquor (Changzhou Precision Biotechnology Co., Ltd.). Some plants in the positive strains screened by bispyribac-sodium in Example 5-1 were sprayed, and continuously observed after spraying. […] See Table 3 and FIG. 22 for specific results.
ZH11 is Resistance Control, CK+(P450i2-30) is the Sensitive Positive Control

[3] = tested on: GAT T0 generation transformants and wild-type control ZH11 seedlings; assay: Bispyribac-sodium resistance phenotype, spraying of T0 seedlings
Description: In order to test the working efficiency of screening marker elements in the GAT system, a 600 mg/L bispyribac-sodium solution was prepared with 10% bispyribac-sodium (Nominee, Japan), and 563 GATT0 generation obtained in example 2 and wild-type control ZH11 3 to 5 leaf stage seedlings were sprayed. After spraying, continuous observation was carried out.

[4] = tested on: seeds of GAT key strains and ZH11; assay: Tissue culture germination screening on bispyribac-sodium (BS) medium; conditions: 1/2MS + 3 μm bispyribac-sodium
Description: In order to identify the working efficiency of screening marker elements in the GAT T1 generation, tissue culture germination was used to screen the T1 generation of key strains and candidate strains.
Therefore, ½MS medium+3 μm bispyribac-sodium was prepared for screening the key strains and the candidate strains of GAT, and the germination results were shown in Table 2.

[5] = tested on: seeds of GAT strains, hybrids with sterile line 1907, ZH11, 9311, MH63; assay: Detection of the escape rate of GAT pollen: seed screening on BS medium; conditions: 21 days; for Survival number / Survival rate: 1/2MS + 3uM BS
Excerpt: To further detect whether its pollen escapes, in this example, the rice material of common sterile line was pollinated through the strains of the excellent initial maintainer line of GAT, and it was checked whether the hybrid seed has the resistance to bispyribac-sodium (the method is the same as that in Example 5). […] GAT strains (23-2, 88-4) were selected as male parents to pollinate female sterile line 1907, and 221 and 373 hybrid seeds were obtained respectively.

[6] = 347 GAT T0 strains, 3 g/L bentazone
[7] = strain 11-1 T1, 8 plants sprayed
[8] = strain 23-2 T1, 12 plants sprayed
[9] = strain 23 T1, 14 plants sprayed
[10] = strain 53-3 T1, 8 plants sprayed
[11] = strain 77-2 T1, 2 plants sprayed
[12] = strain 88-4 T1, 13 plants sprayed
[13] = strain 93-2 T1, 9 plants sprayed
[14] = strain 95-2 T1, 2 plants sprayed
[15] = strain 174-3 T1, 10 plants sprayed
[16] = strain 175-4 T1, 7 plants sprayed
[17] = strain CK + (P450i2-30) (sensitive positive control), 4 plants sprayed
[18] = strain ZH11 (resistance control), 4 plants sprayed
[19] = 563 GAT T0 transformants, 600 mg/L spray, 14th day
[20] = hybrid 1907 × 23-2(T1), total number 211
[21] = hybrid 1907×88-4(T1), total number 363
[22] = strain 23-2(T2), total number 200
[23] = strain 88-4(T2), total number 200

SMILES: CC(C)N1C(=O)c2ccccc2NS1(=O)=O [bentazone]
- number of low sensitive or non-phenotypic strains [1, 6]: 122 strains
- number of strains withered severely then recovered (moderately sensitive) [1, 6]: 81 strains
- number of strains with irreversible leaf wilt (highly sensitive) ([1]; 347 GAT T0 strains, 3 g/L bentazone, 7th to 14th day): 144 strains
- number of strains highly resistant to bispyribac-sodium and highly sensitive to bentazone ([1]; GAT T0 strains, 600 mg/L bispyribac-sodium then 3 g/L bentazone): 86 strains
- number of strains with individual plants slightly less sensitive, eventually died ([2]; T1 strains): 5 strains
- number of strains highly susceptible to wilt and death (highly sensitive) ([2]; bispyribac-sodium resistance T1 strains, 14th day): 6 strains
- Highly sensitive ratio ([2]; strain 4 T1, 2 plants sprayed): 1/2
- Highly sensitive(dead) ([2]; strain 4 T1, 2 plants sprayed): 1
- Low sensitivity ([2]; strain 4 T1, 2 plants sprayed): 0
- Medium sensitivity ([2]; strain 4 T1, 2 plants sprayed): 1
- No phenotype ([2]; strain 4 T1, 2 plants sprayed): 0
- Highly sensitive ratio ([2]; strain 7 T1, 15 plants sprayed): 2/15
- Highly sensitive(dead) ([2]; strain 7 T1, 15 plants sprayed): 2
- Low sensitivity ([2]; strain 7 T1, 15 plants sprayed): 13
- Medium sensitivity ([2]; strain 7 T1, 15 plants sprayed): 0
- No phenotype ([2]; strain 7 T1, 15 plants sprayed): 0
- Highly sensitive ratio [2, 7]: 8/8
- Highly sensitive(dead) [2, 7]: 8
- Low sensitivity [2, 7]: 0
- Medium sensitivity [2, 7]: 0
- No phenotype [2, 7]: 0
- Highly sensitive ratio ([2]; strain 20 T1, 3 plants sprayed): 2/3
- Highly sensitive(dead) ([2]; strain 20 T1, 3 plants sprayed): 2
- Low sensitivity ([2]; strain 20 T1, 3 plants sprayed): 0
- Medium sensitivity ([2]; strain 20 T1, 3 plants sprayed): 1
- No phenotype ([2]; strain 20 T1, 3 plants sprayed): 0
- Highly sensitive ratio [2, 8]: 11/12
- Highly sensitive(dead) [2, 8]: 11
- Low sensitivity [2, 8]: 0
- Medium sensitivity [2, 8]: 1
- No phenotype [2, 8]: 0
- Highly sensitive ratio [2, 9]: 14/14
- Highly sensitive(dead) [2, 9]: 14
- Low sensitivity [2, 9]: 0
- Medium sensitivity [2, 9]: 0
- No phenotype [2, 9]: 0
- Highly sensitive ratio ([2]; strain 28 T1, 7 plants sprayed): 7/7
- Highly sensitive(dead) ([2]; strain 28 T1, 7 plants sprayed): 7
- Low sensitivity ([2]; strain 28 T1, 7 plants sprayed): 0
- Medium sensitivity ([2]; strain 28 T1, 7 plants sprayed): 0
- No phenotype ([2]; strain 28 T1, 7 plants sprayed): 0
- Highly sensitive ratio [2, 10]: 8/8
- Highly sensitive(dead) [2, 10]: 8
- Low sensitivity [2, 10]: 0
- Medium sensitivity [2, 10]: 0
- No phenotype [2, 10]: 0
- Highly sensitive ratio [2, 11]: 2/2
- Highly sensitive(dead) [2, 11]: 2
- Low sensitivity [2, 11]: 0
- Medium sensitivity [2, 11]: 0
- No phenotype [2, 11]: 0
- Highly sensitive ratio [2, 12]: 12/13
- Highly sensitive(dead) [2, 12]: 12
- Low sensitivity [2, 12]: 0
- Medium sensitivity [2, 12]: 1
- No phenotype [2, 12]: 0
- Highly sensitive ratio [2, 13]: 8/9
- Highly sensitive(dead) [2, 13]: 8
- Low sensitivity [2, 13]: 1
- Medium sensitivity [2, 13]: 0
- No phenotype [2, 13]: 0
- Highly sensitive ratio [2, 14]: 2/2
- Highly sensitive(dead) [2, 14]: 2
- Low sensitivity [2, 14]: 0
- Medium sensitivity [2, 14]: 0
- No phenotype [2, 14]: 0
- Highly sensitive ratio [2, 15]: 4/10
- Highly sensitive(dead) [2, 15]: 4
- Low sensitivity [2, 15]: 6
- Medium sensitivity [2, 15]: 0
- No phenotype [2, 15]: 0
- Highly sensitive ratio [2, 16]: 5/7
- Highly sensitive(dead) [2, 16]: 5
- Low sensitivity [2, 16]: 0
- Medium sensitivity [2, 16]: 2
- No phenotype [2, 16]: 0
- Highly sensitive ratio [2, 17]: 4/4
- Highly sensitive(dead) [2, 17]: 4
- Low sensitivity [2, 17]: 0
- Medium sensitivity [2, 17]: 0
- No phenotype [2, 17]: 0
- Highly sensitive ratio [2, 18]: 0/4
- Highly sensitive(dead) [2, 18]: 0
- Low sensitivity [2, 18]: 0
- Medium sensitivity [2, 18]: 0
- No phenotype [2, 18]: 4

SMILES: COc1cc(OC)nc(Oc2cccc(Oc3nc(OC)cc(OC)n3)c2C(=O)O)n1 [bispyribac-sodium]
- number of growth inhibited strains (mediumly resistant) [3, 19]: 163 strains
- number of irreversible death or near-death strains (non-resistant or low resistant) [3, 19]: 216 strains
- number of normal growth strains (highly resistant) [3, 19]: 184 strains
- probability of GAT transformants showing normal growth, highly resistant ([3]; GAT T0 transformants, 600 mg/L spray): 32.68%
- appearance of leaves after spraying ([3]; control ZH11, 600 mg/L bispyribac-sodium spray, 3 to 5 leaf stage, third day): withered and yellow
- appearance after spraying ([3]; control ZH11, 600 mg/L bispyribac-sodium spray, 14th day): completely died
- appearance after spraying ([3]; control ZH11, 600 mg/L bispyribac-sodium spray, seventh day): withered and yellow and was dying
- Germination ([4]; strain 4, 45 seeds): 24
- Non-germination ([4]; strain 4, 45 seeds): 21
- Germination ([4]; strain 7, 29 seeds): 11
- Non-germination ([4]; strain 7, 29 seeds): 18
- Germination ([4]; strain 11-1, 58 seeds): 26
- Non-germination ([4]; strain 11-1, 58 seeds): 32
- Germination ([4]; strain 20, 40 seeds): 10
- Non-germination ([4]; strain 20, 40 seeds): 30
- Germination ([4]; strain 23-2, 30 seeds): 19
- Non-germination ([4]; strain 23-2, 30 seeds): 11
- Germination ([4]; strain 23, 110 seeds): 61
- Non-germination ([4]; strain 23, 110 seeds): 49
- Germination ([4]; strain 28, 59 seeds): 16
- Non-germination ([4]; strain 28, 59 seeds): 43
- Germination ([4]; strain 53-3, 19 seeds): 7
- Non-germination ([4]; strain 53-3, 19 seeds): 12
- Germination ([4]; strain 77-2, 46 seeds): 29
- Non-germination ([4]; strain 77-2, 46 seeds): 17
- Germination ([4]; strain 88-4, 62 seeds): 30
- Non-germination ([4]; strain 88-4, 62 seeds): 32
- Germination ([4]; strain 93-2, 34 seeds): 15
- Non-germination ([4]; strain 93-2, 34 seeds): 19
- Germination ([4]; strain 95-2, 35 seeds): 10
- Non-germination ([4]; strain 95-2, 35 seeds): 25
- Germination ([4]; strain 174-3, 15.2 seeds): 12
- Non-germination ([4]; strain 174-3, 15.2 seeds): 3.2
- Germination ([4]; strain 175-4): 14
- Non-germination ([4]; strain 175-4, 27.3 seeds): 13.3
- Germination ([4]; strain ZH11 (CK), 40 seeds): 0
- Non-germination ([4]; strain ZH11 (CK), 40 seeds): 40
- Survival number [5, 20]: 0
- Survival rate [5, 20]: 0.00%
- Survival number [5, 21]: 0
- Survival rate [5, 21]: 0.00%
- germination rate ([5]; hybrid seeds 1907 x GAT strains 23-2, 88-4, 1/2MS+3 uM BS): 0%
- Survival number [5, 22]: 95
- Survival rate [5, 22]: 47.50%
- Survival number [5, 23]: 83
- Survival rate [5, 23]: 41.50%
- Survival number ([5]; strain 9311, total number 200): 0
- Survival rate ([5]; strain 9311, total number 200): 0.00%
- Survival number ([5]; strain MH63, total number 200): 0
- Survival rate ([5]; strain MH63, total number 200): 0.00%
- Survival number ([5]; strain ZH11, total number 200): 0
- Survival rate ([5]; strain ZH11, total number 200): 0.00%
